In PubChem BioAssay (NCI):
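A five-concentration, 48-hour dose response in 96-well plates underlies each endpoint, interpolated linearly between surrounding concentrations. At the TGI there is no net growth.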

How the values were obtained:
Test in all cases: NCI-60 cell line screen, 48 h
OVCAR-8 ovarian = tested on: OVCAR-8 ovarian
HOP-62 NSCLC = tested on: HOP-62 NSCLC
SN12C renal = tested on: SN12C renal
UACC-62 melanoma = tested on: UACC-62 melanoma
M14 melanoma = tested on: M14 melanoma
786-0 renal = tested on: 786-0 renal
SK-OV-3 ovarian = tested on: SK-OV-3 ovarian
SF-268 CNS = tested on: SF-268 CNS
PC-3 prostate = tested on: PC-3 prostate
COLO 205 colon = tested on: COLO 205 colon
UO-31 renal = tested on: UO-31 renal
MCF7 breast = tested on: MCF7 breast
MDA-MB-435 = tested on: MDA-MB-435
SNB-19 CNS = tested on: SNB-19 CNS
NCI-H23 lung = tested on: NCI-H23 lung
KM12 colon = tested on: KM12 colon
DU-145 prostate = tested on: DU-145 prostate
MDA-MB-231 breast = tested on: MDA-MB-231 breast
SNB-75 CNS = tested on: SNB-75 CNS
SW-620 colon = tested on: SW-620 colon
A549 NSCLC = tested on: A549 NSCLC
HS 578T breast = tested on: HS 578T breast
NCI-H522 lung = tested on: NCI-H522 lung
SK-MEL-5 melanoma = tested on: SK-MEL-5 melanoma
SF-295 CNS = tested on: SF-295 CNS
LOX IMVI melanoma = tested on: LOX IMVI melanoma
A498 renal = tested on: A498 renal
IGROV1 ovarian = tested on: IGROV1 ovarian
HOP-92 NSCLC = tested on: HOP-92 NSCLC
SF-539 CNS = tested on: SF-539 CNS
EKVX NSCLC = tested on: EKVX NSCLC
CCRF-CEM leukemia = tested on: CCRF-CEM leukemia
OVCAR-4 ovarian = tested on: OVCAR-4 ovarian
HCT-116 colon = tested on: HCT-116 colon
MDA-N = tested on: MDA-N
HCT-15 colon = tested on: HCT-15 colon
MALME-3M melanoma = tested on: MALME-3M melanoma
ACHN renal = tested on: ACHN renal
T-47D breast = tested on: T-47D breast
NCI-H460 lung = tested on: NCI-H460 lung
NCI/ADR-RES ovarian = tested on: NCI/ADR-RES ovarian
MOLT-4 leukemia = tested on: MOLT-4 leukemia
BT-549 breast = tested on: BT-549 breast
SK-MEL-2 melanoma = tested on: SK-MEL-2 melanoma
U251 CNS = tested on: U251 CNS
OVCAR-5 ovarian = tested on: OVCAR-5 ovarian
OVCAR-3 ovarian = tested on: OVCAR-3 ovarian
HL-60(TB) leukemia = tested on: HL-60(TB) leukemia
TK-10 renal = tested on: TK-10 renal
NCI-H226 lung = tested on: NCI-H226 lung
UACC-257 melanoma = tested on: UACC-257 melanoma
CAKI-1 renal = tested on: CAKI-1 renal
HT29 colon = tested on: HT29 colon
SK-MEL-28 melanoma = tested on: SK-MEL-28 melanoma
RXF 393 renal = tested on: RXF 393 renal
HCC-2998 colon = tested on: HCC-2998 colon
SR leukemia = tested on: SR leukemia
RPMI-8226 leukemia = tested on: RPMI-8226 leukemia
K-562 leukemia = tested on: K-562 leukemia

In the case of `CC1=C2C(=O)NN=C2CCN1c1ccc(Br)cc1`, the TGI (OVCAR-8 ovarian) was > 100 µM, the TGI (HOP-62 NSCLC) was > 100 µM and the TGI (SN12C renal) was > 100 µM. The TGI (UACC-62 melanoma) was > 100 µM, the TGI (M14 melanoma) was > 100 µM and the TGI (786-0 renal) was > 100 µM. The TGI (SK-OV-3 ovarian) was > 100 µM, the TGI (SF-268 CNS) was > 100 µM and the TGI (PC-3 prostate) was > 100 µM. For the same compound, the TGI (COLO 205 colon) was > 100 µM, the TGI (UO-31 renal) was > 100 µM and the TGI (MCF7 breast) was > 100 µM. The TGI (MDA-MB-435) was > 100 µM, the TGI (SNB-19 CNS) was > 100 µM and the TGI (NCI-H23 lung) was > 100 µM. The TGI (KM12 colon) was > 100 µM, the TGI (DU-145 prostate) was > 100 µM and the TGI (MDA-MB-231 breast) was > 100 µM. The TGI (SNB-75 CNS) was > 100 µM, the TGI (SW-620 colon) was > 100 µM and the TGI (A549 NSCLC) was > 100 µM. For the same compound, the TGI (HS 578T breast) was > 100 µM, the TGI (NCI-H522 lung) was > 100 µM and the TGI (SK-MEL-5 melanoma) was > 100 µM. For the same compound, the TGI (SF-295 CNS) was > 100 µM, the TGI (LOX IMVI melanoma) was > 100 µM and the TGI (A498 renal) was > 100 µM. For the same compound, the TGI (IGROV1 ovarian) was > 100 µM, the TGI (HOP-92 NSCLC) was > 100 µM and the TGI (SF-539 CNS) was > 100 µM. The TGI (EKVX NSCLC) was > 100 µM, the TGI (CCRF-CEM leukemia) was 8.26 µM and the TGI (OVCAR-4 ovarian) was > 100 µM. For the same compound, the TGI (HCT-116 colon) was > 100 µM, the TGI (MDA-N) was > 100 µM and the TGI (HCT-15 colon) was > 100 µM. For the same compound, the TGI (MALME-3M melanoma) was > 100 µM, the TGI (ACHN renal) was > 100 µM and the TGI (T-47D breast) was > 100 µM. The TGI (NCI-H460 lung) was > 100 µM, the TGI (NCI/ADR-RES ovarian) was > 100 µM and the TGI (MOLT-4 leukemia) was > 100 µM. For the same compound, the TGI (BT-549 breast) was 75.1 µM, the TGI (SK-MEL-2 melanoma) was > 100 µM and the TGI (U251 CNS) was > 100 µM. The TGI (OVCAR-5 ovarian) was > 100 µM, the TGI (OVCAR-3 ovarian) was > 100 µM and the TGI (HL-60(TB) leukemia) was > 100 µM. The TGI (TK-10 renal) was > 100 µM, the TGI (NCI-H226 lung) was > 100 µM and the TGI (UACC-257 melanoma) was > 100 µM. The TGI (CAKI-1 renal) was > 100 µM, the TGI (HT29 colon) was > 100 µM and the TGI (SK-MEL-28 melanoma) was > 100 µM.
Work on `O=C(NNC(=S)Nc1ccc(Cl)cc1)c1cc(-c2ccccc2)nc2ccccc12` yielded a TGI (OVCAR-8 ovarian) of 29.1 µM, a TGI (HOP-62 NSCLC) of 19.6 µM and a TGI (SN12C renal) of 21.4 µM. The TGI (UACC-62 melanoma) was 12.6 µM, the TGI (M14 melanoma) was 18.7 µM and the TGI (786-0 renal) was 17.6 µM. For the same compound, the TGI (SK-OV-3 ovarian) was 19.8 µM, the TGI (SF-268 CNS) was 29.6 µM and the TGI (PC-3 prostate) was 15.1 µM. For the same compound, the TGI (COLO 205 colon) was 18.2 µM, the TGI (UO-31 renal) was 18.1 µM and the TGI (RXF 393 renal) was 21.9 µM. The TGI (HCC-2998 colon) was 11.5 µM, the TGI (MCF7 breast) was 17.3 µM and the TGI (MDA-MB-435) was 11.4 µM. It also gave a TGI (SNB-19 CNS) of 21.7 µM, a TGI (NCI-H23 lung) of 17.2 µM and a TGI (KM12 colon) of 22.5 µM. For the same compound, the TGI (DU-145 prostate) was 16.5 µM, the TGI (MDA-MB-231 breast) was 29.4 µM and the TGI (SNB-75 CNS) was 39.8 µM. The TGI (SW-620 colon) was 18.4 µM, the TGI (A549 NSCLC) was 21.3 µM and the TGI (SR leukemia) was 4.72 µM. It also gave a TGI (HS 578T breast) of 32.4 µM, a TGI (NCI-H522 lung) of 23.2 µM and a TGI (SK-MEL-5 melanoma) of 16.4 µM. The TGI (SF-295 CNS) was 9.22 µM, the TGI (IGROV1 ovarian) was 26.7 µM and the TGI (HOP-92 NSCLC) was 13.6 µM. It also gave a TGI (SF-539 CNS) of 11.6 µM, a TGI (CCRF-CEM leukemia) of 6.91 µM and a TGI (OVCAR-4 ovarian) of 24.3 µM. It also gave a TGI (HCT-116 colon) of 13.5 µM, a TGI (MDA-N) of 6.5 µM and a TGI (HCT-15 colon) of 14.9 µM. It also gave a TGI (MALME-3M melanoma) of 17.5 µM, a TGI (ACHN renal) of 22.7 µM and a TGI (T-47D breast) of 11.6 µM. The TGI (NCI-H460 lung) was 25.6 µM, the TGI (NCI/ADR-RES ovarian) was 30.7 µM and the TGI (MOLT-4 leukemia) was 27.7 µM. For the same compound, the TGI (BT-549 breast) was 19.2 µM, the TGI (SK-MEL-2 melanoma) was 9.89 µM and the TGI (U251 CNS) was 16.1 µM. It also gave a TGI (RPMI-8226 leukemia) of 48 µM, a TGI (OVCAR-5 ovarian) of 24.4 µM and a TGI (OVCAR-3 ovarian) of 8.91 µM. It also gave a TGI (TK-10 renal) of 21.7 µM, a TGI (NCI-H226 lung) of 28.9 µM and a TGI (K-562 leukemia) of 93.1 µM. It also gave a TGI (UACC-257 melanoma) of 19.5 µM, a TGI (CAKI-1 renal) of 20.6 µM and a TGI (HT29 colon) of 34.9 µM. It also gave a TGI (SK-MEL-28 melanoma) of 14.1 µM.
